The target of data set [1] is GLP-1R (Homo sapiens (Human), UniProt P43220). The data set is described as follows: GLP-1R activation: cAMP increase in CHO cells stably expressing GLP-1R. The format is cell-based. Conditions: cAMP increase, 10 point dose response, 30 minutes incubation at 37° C., read-out: EC50. The gist of the method: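 CHO cells stably expressing GLP-1R were incubated 1 h at 37 °C in medium with 1% BSA, then exposed to compound in a 10-point dose response for 30 min at 37 °C. cAMP rise was detected by HTRF (Gs Dynamic kit). EC50 came from a sigmoidal fit of response against log agonist concentration.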

A short description of data set [2]: Microsomal stability (liver microsomal assay, mixed cofactors); predicted hepatic clearance. The format is in vitro ADME. Conditions: liver microsomes 1.0 mg protein/mL (+UDPGA +NADPH), 1 μM analyte, 37° C.; scaled with human liver weight and hepatic blood flow 1.3 L/hr/kg. Summed up:
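Compound at 1 μM with human or rat pooled liver microsomes, alamethicin-treated, pH 7.4 phosphate, NADPH-regenerating plus UDPGA cofactors, 37° C, sampled 0–70 min. Parent/internal standard ratio by RapidFire QToF MS; half-life from initial log-linear decay, scaled to intrinsic and predicted hepatic clearance and hepatic extraction.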

Consider eight compounds from patent publication US20250099431A1, “GLP-1R MODULATING COMPOUNDS” (priority 2020, published 2025).

Chain of GLP-1R (P43220 24-463): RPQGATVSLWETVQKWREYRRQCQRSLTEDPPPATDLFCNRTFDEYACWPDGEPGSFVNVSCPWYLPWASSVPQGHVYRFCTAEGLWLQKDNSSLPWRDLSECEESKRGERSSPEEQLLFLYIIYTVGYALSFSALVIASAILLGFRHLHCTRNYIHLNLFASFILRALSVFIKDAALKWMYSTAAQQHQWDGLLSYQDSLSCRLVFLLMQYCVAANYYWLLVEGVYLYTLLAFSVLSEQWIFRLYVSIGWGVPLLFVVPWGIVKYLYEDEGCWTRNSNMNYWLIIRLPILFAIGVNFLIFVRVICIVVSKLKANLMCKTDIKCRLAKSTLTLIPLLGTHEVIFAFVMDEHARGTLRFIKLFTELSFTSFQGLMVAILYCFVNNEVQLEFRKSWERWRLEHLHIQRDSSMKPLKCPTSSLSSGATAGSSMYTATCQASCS

Consider `COCCn1c(Cc2c(F)cc(-c3cccc4c3OC3c5ccc(Cl)cc5OC43)cc2F)nc2ccc(C(=O)O)cc21` (stereo not shown) [Example 54, 2-(4-(7-chloro-4b,9b-dihydrobenzofuro [3,2-b]benzofuran-1-yl)-2,6-difluorobenzyl)-1-(2-methoxyethyl)-1H-benzo[d]imidazole-6-carboxylic acid], for which the EC50 in data set [1] came to 0.628 µM. Also, in data set [2], the “Predicted Hepatic Clearance (Pred. Cl.)” value was 0.18 L/h/kg.

`COCCn1c(Cc2c(F)cc(-c3cccc4c3OC3(CCCOc5cc(Cl)ccc53)O4)cc2F)nc2ccc(C(=O)O)cc21` (stereo not shown) [Example 55, 2-(4-(8-chloro-3,4-dihydro-2H-spiro[benzo[b]oxepine-5,2′-benzo[d][1,3]dioxol]-4′-yl)-2,6-difluorobenzyl)-1-(2-methoxyethyl)-1H-benzo[d]imidazole-6-carboxylic acid]: the EC50 in data set [1] amounted to 1.27 µM. In addition, the “Predicted Hepatic Clearance (Pred. Cl.)” value in data set [2] is 0.5 L/h/kg.

As to `COCCn1c(Cc2c(F)cc(-c3cccc4c3OC3(CCCc5cc(Cl)ccc53)O4)cc2F)nc2ccc(C(=O)O)cc21` (stereo not shown) [Example 56, 2-(4-(6′-chloro-3′,4′-dihydro-2′H-spiro[benzo[d][1,3]dioxole-2,1′-naphthalen]-4-yl)-2,6-difluorobenzyl)-1-(2-methoxyethyl)-1H-benzo[d]imidazole-6-carboxylic acid], the 50% effective concentration (EC50) in data set [1] came to 3.75 µM. In addition, in data set [2], the “Predicted Hepatic Clearance (Pred. Cl.)” value is 0.35 L/h/kg.

Turning to `COCCn1c(Cc2c(F)cc(-c3cccc4c3OC3(CCCCc5cc(Cl)ccc53)O4)cc2F)nc2ccc(C(=O)O)cc21` (stereo not shown) [Example 57, 2-(4-(2′-chloro-6′,7′,8′,9′-tetrahydrospiro[benzo [d][1,3]dioxole-2,5′-benzo[7]annulen]-4-yl)-2,6-difluorobenzyl)-1-(2-methoxyethyl)-1H-benzo[d]imidazole-6-carboxylic acid], the EC50 in data set [1] stood at 0.347 µM. Also, in data set [2], the “Predicted Hepatic Clearance (Pred. Cl.)” value was 0.55 L/h/kg.

With `COCCn1c(Cc2c(F)cc(-c3cccc4c3OC(C)(c3ccc(C(F)(F)F)cc3F)O4)cc2F)nc2ccc(C(=O)O)cc21` (stereo not shown) [Example 58, 2-(2,6-difluoro-4-(2-(2-fluoro-4-(trifluoromethyl)phenyl)-2-methylbenzo[d][1, 3]dioxol-4-yl)benzyl)-1-(2-methoxyethyl)-1H-benzo[d]imidazole-6-carboxylic acid], in data set [1], the EC50 turned out to be 0.0063 µM. Also, the “Predicted Hepatic Clearance (Pred. Cl.)” value in data set [2] was 0.19 L/h/kg.

Turning to `COCCn1c(Cc2c(F)cc(-c3cccc4c3OC(C)(c3ccc(Cl)cc3OC)O4)cc2F)nc2ccc(C(=O)O)cc21` (stereo not shown) [Example 60, 2-(4-(2-(4-chloro-2-methoxyphenyl)-2-methylbenzo[d][1, 3]dioxol-4-yl)-2,6-difluorobenzyl)-1-(2-methoxyethyl)-1H-benzo[d]imidazole-6-carboxylic acid], the concentration giving a half-maximal response (EC50) in data set [1] came out at 0.0038 µM. In data set [2], the “Predicted Hepatic Clearance (Pred. Cl.)” value is 0.21 L/h/kg.

As to `COCCn1c(Cc2csc(-c3cccc4c3OC(C)(c3ccc(Cl)cc3F)O4)c2)nc2ccc(C(=O)O)cc21` (stereo not shown) [Example 61, 2-((5-(2-(4-chloro-2-fluorophenyl)-2-methylbenzo[d][1, 3]dioxol-4-yl)thiophen-3-yl)methyl)-1-(2-methoxyethyl)-1H-benzo[d]imidazole-6-carboxylic acid], the EC50 in data set [1] was 0.639 µM. Besides, the “Predicted Hepatic Clearance (Pred. Cl.)” value in data set [2] is 0.8 L/h/kg.

Consider `COCCn1c(Cc2cc(F)c(-c3cccc4c3OC(C)(c3ccc(C#N)cc3F)O4)cc2F)nc2c(F)cc(C(=O)O)cc21` (stereo not shown) [Example 62, 2-(4-(2-(4-cyano-2-fluorophenyl)-2-methylbenzo[d][1, 3]dioxol-4-yl)-2,5-difluorobenzyl)-4-fluoro-1-(2-methoxyethyl)-1H-benzo[d]imidazole-6-carboxylic acid], for which, in data set [1], the EC50 was 0.0025 µM. For the same compound, in data set [2], the “Predicted Hepatic Clearance (Pred. Cl.)” value is on record as 0.53 L/h/kg.
